{"source": "patent US10167262B2", "about": "“Herbicidal substituted 3-arylpyrazoles” (FMC CORPORATION, priority 2014, dated 2019)", "format_in_all_cases": "in vivo", "key": {"[1]": {"system": "barnyardgrass (Echinochloa crus-galli)", "test": "Test E pre-/postemergence greenhouse test, plant response rating 0-100", "conditions": "Postemergence, scale 0 to 100", "method_in_brief": "(§1)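 Rated visually against controls 14-21 days after treatment on a 0-100 scale (100 = complete control). Pre- and postemergence sprays used a non-phytotoxic solvent mixture with surfactant. Preemergence seeds were in silt loam; postemergence plants were in peat-based medium at the 1- to 4-leaf stage (2-18 cm).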"}, "[2]": {"system": "sandbur (southern sandbur, Cenchrus echinatus)", "test": "Test E pre-/postemergence greenhouse test, plant response rating 0-100", "conditions": "Postemergence, scale 0 to 100", "method_in_brief": "as §1"}, "[3]": {"system": "soybean (Glycine max)", "test": "Test E pre-/postemergence greenhouse test, plant response rating 0-100", "conditions": "Postemergence, scale 0 to 100", "method_in_brief": "as §1"}, "[4]": {"system": "cocklebur (common cocklebur, Xanthium strumarium)", "test": "Test C postemergence greenhouse test, plant response rating 0-100", "conditions": "for Plant response rating, Cocklebur: scale 0 to 100", "method_in_brief": "(§2)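 Plants rated visually 0 (no effect) to 100 (complete control) against untreated controls after 13 to 15 days in the greenhouse, dash indicating no result. Treatment was a postemergence application of formulated chemicals at the 1- to 4-leaf stage (2 to 18 cm), in pots of peat-vermiculite medium.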"}, "[5]": {"system": "canarygrass (Phalaris minor)", "test": "Test C postemergence greenhouse test, plant response rating 0-100", "conditions": "for Plant response rating, Canarygrass: scale 0 to 100", "method_in_brief": "as §2"}, "[6]": {"system": "goosegrass (Eleusine indica)", "test": "Test C postemergence greenhouse test, plant response rating 0-100", "conditions": "for Plant response rating, Goosegrass: scale 0 to 100", "method_in_brief": "as §2"}, "[7]": {"system": "woolly cupgrass (Eriochloa villosa)", "test": "Test C postemergence greenhouse test, plant response rating 0-100", "conditions": "for Plant response rating, Cupgrass, Woolly: scale 0 to 100", "method_in_brief": "as §2"}, "[8]": {"system": "deadnettle (henbit deadnettle, Lamium amplexicaule)", "test": "Test C postemergence greenhouse test, plant response rating 0-100", "conditions": "for Plant response rating, Deadnettle: scale 0 to 100", "method_in_brief": "as §2"}}}
{"smiles": "Cn1cc(C(=O)c2cccs2)c(-c2cc(Cl)cc(Cl)c2)n1", "note": "[Compound 17]", "values": [{"measurement": "Plant response rating, Barnyardgrass", "setting": "[1]; 31 g ai/ha", "result": 0}, {"measurement": "Plant response rating, Barnyardgrass", "setting": "[1]; 62 g ai/ha", "result": 0}, {"measurement": "Plant response rating, Barnyardgrass", "setting": "[1]; 125 g ai/ha", "result": 0}, {"measurement": "Plant response rating, Barnyardgrass", "setting": "[1]; 250 g ai/ha", "result": 0}, {"measurement": "Plant response rating, Barnyardgrass", "setting": "[1]; 500 g ai/ha", "result": 20}, {"measurement": "Plant response rating, Sandbur", "setting": "[2]; 31 g ai/ha", "result": 0}, {"measurement": "Plant response rating, Sandbur", "setting": "[2]; 62 g ai/ha", "result": 0}, {"measurement": "Plant response rating, Sandbur", "setting": "[2]; 125 g ai/ha", "result": 0}, {"measurement": "Plant response rating, Sandbur", "setting": "[2]; 250 g ai/ha", "result": 0}, {"measurement": "Plant response rating, Sandbur", "setting": "[2]; 500 g ai/ha", "result": 10}, {"measurement": "Plant response rating, Soybean", "setting": "[3]; 31 g ai/ha", "result": 0}, {"measurement": "Plant response rating, Soybean", "setting": "[3]; 62 g ai/ha", "result": 0}, {"measurement": "Plant response rating, Soybean", "setting": "[3]; 125 g ai/ha", "result": 0}, {"measurement": "Plant response rating, Soybean", "setting": "[3]; 250 g ai/ha", "result": 15}, {"measurement": "Plant response rating, Soybean", "setting": "[3]; 500 g ai/ha", "result": 20}, {"measurement": "Plant response rating (0 to 100), Cocklebur", "setting": "[4]; 62 g ai/ha", "result": 5}, {"measurement": "Plant response rating (0 to 100), Cocklebur", "setting": "[4]; 125 g ai/ha", "result": 10}, {"measurement": "Plant response rating, Cocklebur", "setting": "[4]; 250 g ai/ha", "result": 30}, {"measurement": "Plant response rating, Cocklebur", "setting": "[4]; 500 g ai/ha", "result": 40}, {"measurement": "Plant response rating (0 to 100), Canarygrass", "setting": "[5]; 62 g ai/ha", "result": 0}, {"measurement": "Plant response rating (0 to 100), Canarygrass", "setting": "[5]; 125 g ai/ha", "result": 0}, {"measurement": "Plant response rating, Canarygrass", "setting": "[5]; 250 g ai/ha", "result": 0}, {"measurement": "Plant response rating, Canarygrass", "setting": "[5]; 500 g ai/ha", "result": 5}, {"measurement": "Plant response rating (0 to 100), Goosegrass", "setting": "[6]; 62 g ai/ha", "result": 0}, {"measurement": "Plant response rating (0 to 100), Goosegrass", "setting": "[6]; 125 g ai/ha", "result": 0}, {"measurement": "Plant response rating, Goosegrass", "setting": "[6]; 250 g ai/ha", "result": 5}, {"measurement": "Plant response rating, Goosegrass", "setting": "[6]; 500 g ai/ha", "result": 5}, {"measurement": "Plant response rating (0 to 100), Cupgrass, Woolly", "setting": "[7]; 62 g ai/ha", "result": 0}, {"measurement": "Plant response rating (0 to 100), Cupgrass, Woolly", "setting": "[7]; 125 g ai/ha", "result": 0}, {"measurement": "Plant response rating, Cupgrass, Woolly", "setting": "[7]; 250 g ai/ha", "result": 0}, {"measurement": "Plant response rating, Cupgrass, Woolly", "setting": "[7]; 500 g ai/ha", "result": 15}, {"measurement": "Plant response rating (0 to 100), Deadnettle", "setting": "[8]; 62 g ai/ha", "result": 0}, {"measurement": "Plant response rating (0 to 100), Deadnettle", "setting": "[8]; 125 g ai/ha", "result": 0}, {"measurement": "Plant response rating, Deadnettle", "setting": "[8]; 250 g ai/ha", "result": 0}, {"measurement": "Plant response rating, Deadnettle", "setting": "[8]; 500 g ai/ha", "result": 0}]}
{"smiles": "CCn1cc(C(=O)c2cccs2)c(-c2cc(Cl)cc(Cl)c2)n1", "note": "[Compound 18]", "values": [{"measurement": "Plant response rating, Barnyardgrass", "setting": "[1]; 31 g ai/ha", "result": 0}, {"measurement": "Plant response rating, Barnyardgrass", "setting": "[1]; 62 g ai/ha", "result": 10}, {"measurement": "Plant response rating, Barnyardgrass", "setting": "[1]; 125 g ai/ha", "result": 20}, {"measurement": "Plant response rating, Barnyardgrass", "setting": "[1]; 250 g ai/ha", "result": 25}, {"measurement": "Plant response rating, Barnyardgrass", "setting": "[1]; 500 g ai/ha", "result": 25}, {"measurement": "Plant response rating, Sandbur", "setting": "[2]; 31 g ai/ha", "result": 0}, {"measurement": "Plant response rating, Sandbur", "setting": "[2]; 62 g ai/ha", "result": 0}, {"measurement": "Plant response rating, Sandbur", "setting": "[2]; 125 g ai/ha", "result": 0}, {"measurement": "Plant response rating, Sandbur", "setting": "[2]; 250 g ai/ha", "result": 15}, {"measurement": "Plant response rating, Sandbur", "setting": "[2]; 500 g ai/ha", "result": 20}, {"measurement": "Plant response rating, Soybean", "setting": "[3]; 31 g ai/ha", "result": 0}, {"measurement": "Plant response rating, Soybean", "setting": "[3]; 62 g ai/ha", "result": 0}, {"measurement": "Plant response rating, Soybean", "setting": "[3]; 125 g ai/ha", "result": 10}, {"measurement": "Plant response rating, Soybean", "setting": "[3]; 250 g ai/ha", "result": 20}, {"measurement": "Plant response rating, Soybean", "setting": "[3]; 500 g ai/ha", "result": 30}, {"measurement": "Plant response rating (0 to 100), Cocklebur", "setting": "[4]; 62 g ai/ha", "result": 5}, {"measurement": "Plant response rating (0 to 100), Cocklebur", "setting": "[4]; 125 g ai/ha", "result": 5}, {"measurement": "Plant response rating, Cocklebur", "setting": "[4]; 250 g ai/ha", "result": 15}, {"measurement": "Plant response rating, Cocklebur", "setting": "[4]; 500 g ai/ha", "result": 20}, {"measurement": "Plant response rating (0 to 100), Canarygrass", "setting": "[5]; 62 g ai/ha", "result": 0}, {"measurement": "Plant response rating (0 to 100), Canarygrass", "setting": "[5]; 125 g ai/ha", "result": 0}, {"measurement": "Plant response rating, Canarygrass", "setting": "[5]; 250 g ai/ha", "result": 0}, {"measurement": "Plant response rating, Canarygrass", "setting": "[5]; 500 g ai/ha", "result": 5}, {"measurement": "Plant response rating (0 to 100), Goosegrass", "setting": "[6]; 62 g ai/ha", "result": 0}, {"measurement": "Plant response rating (0 to 100), Goosegrass", "setting": "[6]; 125 g ai/ha", "result": 0}, {"measurement": "Plant response rating, Goosegrass", "setting": "[6]; 250 g ai/ha", "result": 10}, {"measurement": "Plant response rating, Goosegrass", "setting": "[6]; 500 g ai/ha", "result": 15}, {"measurement": "Plant response rating (0 to 100), Cupgrass, Woolly", "setting": "[7]; 62 g ai/ha", "result": 5}, {"measurement": "Plant response rating (0 to 100), Cupgrass, Woolly", "setting": "[7]; 125 g ai/ha", "result": 10}, {"measurement": "Plant response rating, Cupgrass, Woolly", "setting": "[7]; 250 g ai/ha", "result": 15}, {"measurement": "Plant response rating, Cupgrass, Woolly", "setting": "[7]; 500 g ai/ha", "result": 20}, {"measurement": "Plant response rating (0 to 100), Deadnettle", "setting": "[8]; 62 g ai/ha", "result": 20}, {"measurement": "Plant response rating (0 to 100), Deadnettle", "setting": "[8]; 125 g ai/ha", "result": 40}, {"measurement": "Plant response rating, Deadnettle", "setting": "[8]; 250 g ai/ha", "result": 55}, {"measurement": "Plant response rating, Deadnettle", "setting": "[8]; 500 g ai/ha", "result": 60}]}
{"smiles": "Clc1cc(Cl)cc(-c2n[nH]cc2C(=NNc2ccccc2Cl)c2ccccc2)c1", "note": "[Compound 66]", "values": [{"measurement": "Plant response rating (0 to 100), Cocklebur", "setting": "[4]; 62 g ai/ha", "result": 40}, {"measurement": "Plant response rating (0 to 100), Cocklebur", "setting": "[4]; 125 g ai/ha", "result": 90}, {"measurement": "Plant response rating, Cocklebur", "setting": "[4]; 500 g ai/ha", "result": 90}, {"measurement": "Plant response rating (0 to 100), Canarygrass", "setting": "[5]; 62 g ai/ha", "result": 0}, {"measurement": "Plant response rating (0 to 100), Canarygrass", "setting": "[5]; 125 g ai/ha", "result": 0}, {"measurement": "Plant response rating, Canarygrass", "setting": "[5]; 250 g ai/ha", "result": 0}, {"measurement": "Plant response rating, Canarygrass", "setting": "[5]; 500 g ai/ha", "result": 0}, {"measurement": "Plant response rating (0 to 100), Goosegrass", "setting": "[6]; 62 g ai/ha", "result": 0}, {"measurement": "Plant response rating (0 to 100), Goosegrass", "setting": "[6]; 125 g ai/ha", "result": 0}, {"measurement": "Plant response rating, Goosegrass", "setting": "[6]; 250 g ai/ha", "result": 0}, {"measurement": "Plant response rating, Goosegrass", "setting": "[6]; 500 g ai/ha", "result": 0}, {"measurement": "Plant response rating (0 to 100), Cupgrass, Woolly", "setting": "[7]; 62 g ai/ha", "result": 0}, {"measurement": "Plant response rating (0 to 100), Cupgrass, Woolly", "setting": "[7]; 125 g ai/ha", "result": 0}, {"measurement": "Plant response rating, Cupgrass, Woolly", "setting": "[7]; 250 g ai/ha", "result": 0}, {"measurement": "Plant response rating, Cupgrass, Woolly", "setting": "[7]; 500 g ai/ha", "result": 0}, {"measurement": "Plant response rating (0 to 100), Deadnettle", "setting": "[8]; 62 g ai/ha", "result": 0}, {"measurement": "Plant response rating (0 to 100), Deadnettle", "setting": "[8]; 125 g ai/ha", "result": 0}, {"measurement": "Plant response rating, Deadnettle", "setting": "[8]; 250 g ai/ha", "result": 0}, {"measurement": "Plant response rating, Deadnettle", "setting": "[8]; 500 g ai/ha", "result": 5}]}
